Results reported in patent US20140206737A1 (Beijing Zhongwei Shennong Chronic Disease Medical Research …, priority 2013, published 2014).
Where a name gives a salt, the structure may show the parent alone.

Experiments:
[1] = test system: opioid dependent participants; experiment: Treatment of heroin addiction: degree of anxiety by Hamilton Anxiety Scale (HAMA); format: in vivo, human; settings: Day 5
Method: (§1) 1.1. Subject selection criteria: 60 participants, in the range of 18-50 years of age, male or female, and opioid dependent as diagnosed according to the DSM-IV diagnostic criteria for opioid dependence.
(§2) 1.3. Grouping: 60 cases of participants were randomly divided into two groups according to the order of admission: the test group and the methadone control group.
(§3) The control group used methadone hydrochloride oral medication of 10 mg/10 ml each. Comparison method: according to the heroin-dependent self-restraining degree of 7-10 days, the treatment was designed to be 10 days long for both groups. […] The treatment concluded on day 10. Methadone control group was admitted 50-60 mg methadone on the first day; starting on day 2, the methadone dose was reduced by 10 mg per day each day; starting on day 6, the methadone dose was reduced by 2 mg per day each day. The treatment concluded on day 10. Supplementary drugs used in the two groups included normal doses of clonazepam tablets (clonazopam), alprazolam tablets (Alprazoli) once a day at night.
1.5.3. […]
1.6. Statistical analysis of the two groups: the general characteristics, withdrawal symptoms, and anxiety symptoms of the two groups, were statistically analyzed using the t test, chi-square test and Fisher's Exact Test, using suitable software such as SPSS 7.0. […]

[2] = test system: opioid dependent participants; experiment: Treatment of heroin addiction: clinical rating of withdrawal symptoms; format: in vivo, human
Excerpt: as §1
Subject exclusion criteria: candidates with serious heart disease, liver or kidney dysfunction, mental illness, serious bodily weakness, or pregnant or lactating women were excluded.
as §2, §3
1.5.1. Clinical rating used indicators of withdrawal, which has 20 indicators including craving, anxiety, agitation, nausea, vomiting, hot face, chills, or alternating chills and fever, yawning, runny nose, tears, sweating, drowsiness, cutis anserina, tremors, bone and muscle pain, anorexia, abdominal pain, diarrhea, insomnia, and curled position. The rating was done daily on the day before the treatment and on each day during the treatment. The severity of withdrawal symptoms was scored as level 0-4 (five levels in total). Scoring for each participant was done at 9:00 am every day.
(§4) 1.6. Statistical analysis of the two groups: the general characteristics, withdrawal symptoms, and anxiety symptoms of the two groups, were statistically analyzed using the t test, chi-square test and Fisher's Exact Test, using suitable software such as SPSS 7.0. The t test was applied to the symptom data of the two groups, and chi-square test or Fisher's Exact Test was applied to the count data.

[3] = test system: opioid dependent participants; experiment: Treatment of heroin addiction: adverse reactions and side effects; settings: 10-day treatment
Method: as §1, §2, §3
1.5.2. Recordation of adverse reactions: adverse reactions were evaluated in the withdrawal symptom measurement table, using a total of 10 indicators that include: dizziness, syncope, malaise, nausea, vomiting, sweating, dry mouth, drowsiness, blurred vision, disturbance of consciousness. The recordation was done each morning at 9:00.
as §4

SMILES: CCC(=O)C(CC(C)N(C)C)(c1ccccc1)c1ccccc1 (stereo not drawn) [Methadone, methadone hydrochloride]
- emotional changes measured by HAMA (x ± s) [1]: 8.83 ± 0.45
- withdrawal symptoms (x ± s) ([2]; Before treatment, 20 indicators scored level 0-4, 30 per group): 56.03 ± 1.80
- withdrawal symptoms (x ± s) ([2]; Day 1 of treatment): 5.01 ± 0.83
- withdrawal symptoms (x ± s) ([2]; Day 2 of treatment): 27.78 ± 1.40
- withdrawal symptoms (x ± s) ([2]; Day 3 of treatment): 19.71 ± 1.13
- withdrawal symptoms (x ± s) ([2]; Day 4 of treatment): 13.54 ± 1.01
- withdrawal symptoms (x ± s) ([2]; Day 5 of treatment): 8.27 ± 0.28
- withdrawal symptoms (x ± s) ([2]; Day 6 of treatment): 3.84 ± 0.06
- withdrawal symptoms (x ± s) ([2]; Day 7 of treatment): 3.26 ± 0.27
- withdrawal symptoms (x ± s) ([2]; Day 8 of treatment): 3.84 ± 0.07
- withdrawal symptoms (x ± s) ([2]; Day 9 of treatment): 3.82 ± 0.18
- withdrawal symptoms (x ± s) ([2]; Day 10 of treatment): 4.80 ± 0.11
- Adverse Reactions: Abdominal pain ([3]; count, 30 per group): 6
- Adverse Reactions: Chills ([3]; count, 30 per group): 7
- Adverse Reactions: Diarrhea ([3]; count, 30 per group): 3
- Adverse Reactions: Runny nose ([3]; count, 30 per group): 8
- Adverse Reactions: Tears ([3]; count, 30 per group): 8
- Side effects ([3]; heroin addiction study): dizziness, malaise, nausea, sweating and heart palpitations
